What was measured:
Assay type in all cases: cell-based
P-gp [1] = target: T1, P-gp (Homo sapiens, UniProt P08183); experiment: Rhodamine-123 efflux assay, K562-DR; design: K562-DR cell expressed P-gp at high level when compared with parental drug sensitive cells thereof; endogenous in cells; settings: 10 μM, 1 hour efflux
Method: (§1) (Fs: cellular fluorescence intensity of Rb-123 in the presence of testing drugs; Fo: cellular fluorescence intensity of Rh-123 in the absence of any P-gp modulator).
(§2) 1.4 Test for Rh-123 transport: HepG2-DR cells or K562-DR cells (1×10^6 cells in 1 mL complete growth medium) were incubated with 5 μg/mL, Rh-123 at 37° C. for 1 hour to allow Rh-123 uptake. […] Cellular fluorescence of Rh-123 was determined by flow cytometry to analyze the inhibitive effect of test compounds on drug expulsion from cells.

P-gp [2] = target: T1, P-gp; experiment: Rhodamine-123 efflux assay, HepG2-DR; design: KB V1, HepG2-DR and K562-DR cell expressed P-gp at high level when compared with parental drug sensitive cells thereof; endogenous in cells; host or cells: HepG2-DR (doxorubicin-maintained multidrug resistant subline of HepG2); settings: 10 μM, 1 hour efflux
Method: as §1, §2

P-gp [3] = target: T1, P-gp; experiment: Hoechst 33342 efflux assay, HepG2-DR; design: KB V1, HepG2-DR and K562-DR cell expressed P-gp at high level when compared with parental drug sensitive cells thereof; endogenous in cells; host or cells: HepG2-DR (doxorubicin-maintained multidrug resistant subline of HepG2)
Method: Relative amount of intracellular H33342 (%)=100×(FS−F0)/F0
(Fs: cellular fluorescence intensity of H33342 in the presence of a testing drug; F0: cellular fluorescence intensity of H33342 in the absence of any P-gp modulator).
1.4 Hoechst 33342 transport test: HepG2-DR Cells (5×10^4 cells in 100 μL, medium per well) were seeded in 96-well plate and incubated overnight to permit cell attachment. The medium was replaced with fresh medium containing 20 μg/mL Hoechst 33342 and cells were incubated at 37° C. for 1 hour. Cells were then washed with 100 μL ice-cold PBS twice. New medium containing the test compound of various concentrations was added and cells were further incubated at 37° C. for 1 hour. Cells were washed with ice-cold PBS twice and cellular fluorescence intensity was measured at λex=365 nm (λem=460 nm) by a BMG FLUOstar OPTIMA Microplate Reader. Inhibitory effect of the test compound on Hoechst 33342 efflux was expressed as the percentage increase of retained Hoechst 33342 in cells.

T1 sequence (P08183 whole entry): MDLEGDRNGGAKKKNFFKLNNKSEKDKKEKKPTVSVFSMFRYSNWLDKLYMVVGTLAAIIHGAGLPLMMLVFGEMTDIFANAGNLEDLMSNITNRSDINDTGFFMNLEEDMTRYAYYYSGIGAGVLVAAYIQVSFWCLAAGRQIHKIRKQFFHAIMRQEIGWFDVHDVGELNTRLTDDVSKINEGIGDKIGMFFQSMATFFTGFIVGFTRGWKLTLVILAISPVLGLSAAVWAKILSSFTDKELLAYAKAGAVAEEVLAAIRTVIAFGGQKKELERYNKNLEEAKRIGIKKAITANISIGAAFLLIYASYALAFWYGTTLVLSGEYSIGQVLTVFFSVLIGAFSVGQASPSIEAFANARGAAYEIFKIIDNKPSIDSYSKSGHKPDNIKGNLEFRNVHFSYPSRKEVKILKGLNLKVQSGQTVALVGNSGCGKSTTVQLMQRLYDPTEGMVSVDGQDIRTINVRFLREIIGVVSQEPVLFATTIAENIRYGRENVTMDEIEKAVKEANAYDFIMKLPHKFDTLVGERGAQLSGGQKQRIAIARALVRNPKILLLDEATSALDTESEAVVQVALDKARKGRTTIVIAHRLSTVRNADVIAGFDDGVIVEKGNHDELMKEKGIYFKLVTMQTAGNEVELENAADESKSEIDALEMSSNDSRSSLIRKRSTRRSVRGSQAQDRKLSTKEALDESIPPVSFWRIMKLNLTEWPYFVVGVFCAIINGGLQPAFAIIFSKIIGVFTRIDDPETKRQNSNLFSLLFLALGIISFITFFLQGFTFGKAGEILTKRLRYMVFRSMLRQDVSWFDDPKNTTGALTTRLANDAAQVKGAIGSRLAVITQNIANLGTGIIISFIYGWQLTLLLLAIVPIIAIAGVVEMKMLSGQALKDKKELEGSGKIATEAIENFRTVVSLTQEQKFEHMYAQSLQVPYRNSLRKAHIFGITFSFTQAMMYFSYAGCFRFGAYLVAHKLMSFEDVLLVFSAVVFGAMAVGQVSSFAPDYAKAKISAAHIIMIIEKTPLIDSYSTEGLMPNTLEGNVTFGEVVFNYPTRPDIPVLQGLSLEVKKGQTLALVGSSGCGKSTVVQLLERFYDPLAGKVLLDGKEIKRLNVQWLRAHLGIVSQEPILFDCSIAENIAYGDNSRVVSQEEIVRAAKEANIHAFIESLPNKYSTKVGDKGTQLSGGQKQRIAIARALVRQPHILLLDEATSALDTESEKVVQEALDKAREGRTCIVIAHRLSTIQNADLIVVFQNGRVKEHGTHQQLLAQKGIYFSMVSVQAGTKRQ

SMILES	Increase in cellular Rh-123 fluorescence compared with untreated cells (P-gp [1])	Increase in cellular Rh-123 fluorescence compared with untreated cells (P-gp [2])	Highest increase of cellular Hoechst 33342 fluorescence (P-gp [3]; 10 μM)	Highest increase of cellular Hoechst 33342 fluorescence (P-gp [3]; 5 μM)	Highest increase of cellular Hoechst 33342 fluorescence (P-gp [3]; 20 μM)
COc1ccc(C(=O)O[C@@H]2c3c(ccc4ccc(=O)oc34)OC(C)(C)[C@@H]2OC(=O)c2ccc(OC)c(OC)c2)cc1OC (racemic) [cis-DMDBK, (±)-3′-O,4′-O-bis(3,4-dimethoxybenzoyl)-cis-khellactone]	140%	400%	200%	–	–
COc1ccc(/C=C/C(=O)O[C@@H]2c3c(ccc4ccc(=O)oc34)OC(C)(C)[C@@H]2OC(=O)/C=C/c2ccc(OC)c(OC)c2)cc1OC (racemic) [cis-DMDCK, (±)-3′-O,4′-O-bis(3,4-dimethoxycinnamoyl)-cis-khellactone]	200%	480%	–	200%	–
COc1ccc(C(=O)O[C@@H]2[C@@H](OC(=O)c3ccc(OC)c(OC)c3)c3c(ccc4ccc(=O)oc34)OC2(C)C)cc1OC (racemic) [trans-DMDBK, (±)-3′-O,4′-O-bis(3,4-dimethoxybenzoyl)-trans-khellactone]	–	–	–	–	about 150%
COc1ccc(/C=C/C(=O)O[C@@H]2[C@@H](OC(=O)/C=C/c3ccc(OC)c(OC)c3)c3c(ccc4ccc(=O)oc34)OC2(C)C)cc1OC (racemic) [trans-DMDCK, (±)-3′-O,4′-O-bis(3,4-dimethoxycinnamoyl)-trans-khellactone]	–	–	–	–	about 150%

From patent US20090111836A1, “Angular Pyranocoumarins, Process for Preparation and Uses Thereof” (CITY UNIVERSITY OF HONG KONG, priority 2007, published 2009)
